Among the data in patent US20240158418A1 (C4 Therapeutics, Inc., priority 2021, published 2024) are DC50 values, retold here.

As usually defined, the DC50 is the concentration at which degradation of the target reaches its halfway point.

The target of one assay is T1, EGFR L858R-T790M (Homo sapiens, UniProt P00533, L858R/T790M).
T1 construct: NCI-H1975 (harboring EGFR heterozygous L858R-T790M mutations); host or cells: NCI-H1975
T1 sequence (P00533 25-1210 T790M/L858R): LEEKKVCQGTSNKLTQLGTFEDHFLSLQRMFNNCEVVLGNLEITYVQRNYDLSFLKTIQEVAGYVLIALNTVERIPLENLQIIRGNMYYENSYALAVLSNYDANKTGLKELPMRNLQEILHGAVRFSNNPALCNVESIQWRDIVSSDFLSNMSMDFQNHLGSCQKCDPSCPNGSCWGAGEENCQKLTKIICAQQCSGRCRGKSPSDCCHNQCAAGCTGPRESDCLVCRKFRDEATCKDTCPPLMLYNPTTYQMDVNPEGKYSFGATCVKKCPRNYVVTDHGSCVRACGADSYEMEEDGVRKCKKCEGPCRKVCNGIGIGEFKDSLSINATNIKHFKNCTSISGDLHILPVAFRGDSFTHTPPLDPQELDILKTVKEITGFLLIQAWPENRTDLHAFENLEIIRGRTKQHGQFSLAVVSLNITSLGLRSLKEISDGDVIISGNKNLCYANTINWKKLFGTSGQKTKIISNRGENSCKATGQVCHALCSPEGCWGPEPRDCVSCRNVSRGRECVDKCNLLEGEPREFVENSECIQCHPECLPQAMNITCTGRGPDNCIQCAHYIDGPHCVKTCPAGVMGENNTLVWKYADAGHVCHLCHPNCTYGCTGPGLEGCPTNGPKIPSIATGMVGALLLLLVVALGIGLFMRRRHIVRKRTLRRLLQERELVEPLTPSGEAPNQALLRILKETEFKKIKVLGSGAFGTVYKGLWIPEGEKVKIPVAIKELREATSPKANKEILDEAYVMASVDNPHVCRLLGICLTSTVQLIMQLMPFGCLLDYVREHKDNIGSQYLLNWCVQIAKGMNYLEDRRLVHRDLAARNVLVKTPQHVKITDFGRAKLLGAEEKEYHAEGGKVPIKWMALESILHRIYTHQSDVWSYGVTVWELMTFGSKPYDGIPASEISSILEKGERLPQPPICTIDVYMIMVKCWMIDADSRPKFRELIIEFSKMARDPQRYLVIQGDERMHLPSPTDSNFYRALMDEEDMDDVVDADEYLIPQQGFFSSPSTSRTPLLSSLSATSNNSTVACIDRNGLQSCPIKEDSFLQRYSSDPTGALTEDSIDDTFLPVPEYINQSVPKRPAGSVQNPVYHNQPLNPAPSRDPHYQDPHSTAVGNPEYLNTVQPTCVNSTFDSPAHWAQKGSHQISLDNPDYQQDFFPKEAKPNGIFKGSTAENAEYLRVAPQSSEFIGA
Description: EGFR degradation, Total EGFR (L858R-specific) HTRF, NCI-H1975. The following applies: Table 9A; NCI-H1975 cells, 6 hours, Total EGFR HTRF; read-out: H1975 EGFR DC50. The assay is classed as cell-based. An excerpt:
NCI-H1975 (harboring EGFR heterozygous L858R-T790M mutations) and NCI-H3255 (harboring EGFR heterozygous L858R mutation) were purchased from ATCC and NCI, respectively. NCI-H1975+CS (harboring EGFR heterozygous L858R-T790M-C797S mutations) was generated using CRISPR technology to introduce the additional C797S mutation by Horizon Discovery. A431 (harboring EGFR wildtype) was purchased from ATCC. RPMI 1640 no-phenol red medium and fetal bovine serum (FBS) were purchased from Gibco (Grand Island, NY, USA). Cell culture flasks and 384-well microplates were acquired from VWR (Radnor, PA, USA). Phosphorylated (pY1068) EGFR and Total EGFR (using L858R-specific detection antibody and pan-EGFR antibody for EGFR mutant cell lines and EGFR wild-type cell lines, respectively) HTRF assay kits were purchased from Cisbio (Bedford, MA, USA).
Degradation of EGFR protein containing L858R mutation or wild-type was determined based on quantification of FRET signal using a Total EGFR (L858R-specific or pan-EGFR detecting) HTRF assay kit. Phospho-EGFR (pEGFR) inhibition was determined based on quantification of FRET signal using a pY1068 EGFR HTRF assay kit. In separate assay plates, test compounds were added to the 384-well plate from a top concentration of 10 μM with 11 points, half log titration in duplicates. For each assay, 12.5 uL of cells suspended in assay media (RPMI 1640 no-phenol red medium+10% FBS) at cell densities indicated for each cell line in Table 8 below were dispensed using a multi-channel pipette to 384-well low volume white HTRF microplates containing a duplicate concentration range of test compounds and DMSO controls. The plates were kept at 37° C. with 5% CO2 for 6 hours and then incubated with either phospho EGFR or Total EGFR HTRF detection antibodies according to the cell line and EGFR mutant being assayed. Cells treated in the absence of the test compound were the negative control. Positive control was set by wells containing all reagents but no cells. FRET signal was acquired on EnVision™ Multilabel Reader (PerkinElmer, Santa Clara, CA, USA). Compound concentration that achieves 50% degradation and inhibition was reported as DC50 and IC50, respectively.
In general terms: In TR-FRET formats the signal depends on donor and acceptor labels being close together.
Consider `O=C1CCC(Nc2ccc(C3CCN(CC(=O)N4CCN(c5ccc(-c6ccc7cn(C(C(=O)Nc8nccs8)c8ncn9c8CCC9)nc7c6F)cn5)CC4)CC3)cc2)C(=O)N1` (racemic) [Compound 63, (2RS)-2-(6,7-Dihydro-5H-pyrrolo[1,2-c]imidazol-1-yl)-2-[7-fluoro-6-[6-[4-[2-[4-[4-[[(3RS)-2,6-dioxo-3-piperidyl]amino]phenyl]-1-piperidyl]acetyl]piperazin-1-yl]-3-pyridyl]indazol-2-yl]-N-thiazol-2-yl-acetamide], for which the DC50 was in the range of 50 to 150 nM.

`O=C1CCC(Nc2ccc(C3CCN(CC(=O)N4CCC(Oc5ccc(-c6cc(F)c7c(c6)C(=O)N(C(C(=O)Nc6nccs6)c6ncn8c6CCC8)C7)cc5)CC4)CC3)nc2)C(=O)N1` (stereo not shown) [Compound 36, 2-(6,7-dihydro-5H-pyrrolo[1,2-c]imidazol-1-yl)-2-(6-(4-((1-(2-(4-(5-((2,6-dioxopiperidin-3-yl)amino)pyridin-2-yl)piperidin-1-yl)acetyl)piperidin-4-yl)oxy)phenyl)-4-fluoro-1-oxoisoindolin-2-yl)-N-(thiazol-2-yl)acetamide]: the DC50 is under 50 nM.

The same assay, now with this note: Table 9B; NCI-H1975 cells, 6 hours, Total EGFR HTRF; read-out: H1975 EGFR DC50.
For the compound `O=C1CCC(Nc2ccc(N3CCCC(O)(CC(=O)N4CC5(C4)CN(c4ccc(-c6cc(F)c7c(c6)C(=O)N(C(C(=O)Nc6nccs6)c6ncn8c6CCC8)C7)cc4)C5)CC3)c(F)c2)C(=O)N1` (single isomer, unassigned; isomer b1) [Compound 166, 2-(6,7-dihydro-5H-pyrrolo[1,2-c]imidazol-1-yl)-2-[6-[4-[2-[2-[1-[4-[[2,6-dioxo-3-piperidyl]amino]-2-fluoro-phenyl]-4-hydroxy-azepan-4-yl]acetyl]-2,6-diazaspiro[3.3]heptan-6-yl]phenyl]-4-fluoro-1-oxo-isoindolin-2-yl]-N-thiazol-2-yl-acetamide, isomer B1], the DC50 fell in the range of 50 to 150 nM.

For the compound `Cn1nc(N2CCC(=O)NC2=O)c2ccc([C@H]3CCN(C(=O)CN4CC5(CCN(c6ccc(-c7cc(F)c8c(c7)C(=O)N(C(C(=O)Nc7nccs7)c7ncn9c7CCC9)C8)cc6)CC5)C4)CC3(F)F)cc21` (stereo partly drawn) [Compound 143, 2-(6,7-dihydro-5H-pyrrolo[1,2-c]imidazol-1-yl)-2-[6-[4-[2-[2-[(4R)-4-[3-(2,4-dioxohexahydropyrimidin-1-yl)-1-methyl-indazol-6-yl]-3,3-difluoro-1-piperidyl]-2-oxo-ethyl]-2,7-diazaspiro[3.5]nonan-7-yl]phenyl]-4-fluoro-1-oxo-isoindolin-2-yl]-N-thiazol-2-yl-acetamide], the DC50 was 50 to 150 nM.

In the case of `O=C1CCC(Nc2ccc(N3CCCC(O)(CC(=O)N4CC5(C4)CN(c4ccc(-c6cc(F)c7c(c6)C(=O)N(C(C(=O)Nc6nccs6)c6ncn8c6CCC8)C7)cc4)C5)CC3)c(F)c2)C(=O)N1` (single isomer, unassigned; isomer b2) [Compound 167, 2-(6,7-dihydro-5H-pyrrolo[1,2-c]imidazol-1-yl)-2-[6-[4-[2-[2-[1-[4-[[2,6-dioxo-3-piperidyl]amino]-2-fluoro-phenyl]-4-hydroxy-azepan-4-yl]acetyl]-2,6-diazaspiro[3.3]heptan-6-yl]phenyl]-4-fluoro-1-oxo-isoindolin-2-yl]-N-thiazol-2-yl-acetamide, isomer B2], the DC50 was in the range of 50 to 150 nM.

In the case of `O=C1CC[C@H](Nc2ccc(N3CCC(O)(CC(=O)N4CC5(C4)CN(c4ccc(-c6cc(Cl)c7c(c6)C(=O)N(C(C(=O)Nc6nccs6)c6ncn8c6CCC8)C7)cc4)C5)CC3)c(F)c2)C(=O)N1` (stereo partly drawn) [Compound 136, 2-[4-chloro-6-[4-[2-[2-[1-[4-[[(3S)-2,6-dioxo-3-piperidyl]amino]-2-fluoro-phenyl]-4-hydroxy-4-piperidyl]acetyl]-2,6-diazaspiro[3.3]heptan-6-yl]phenyl]-1-oxo-isoindolin-2-yl]-2-(6,7-dihydro-5H-pyrrolo[1,2-c]imidazol-1-yl)-N-thiazol-2-yl-acetamide], the DC50 was under 50 nM.

As for `Cn1nc(N2CCC(=O)NC2=O)c2cc(F)c(N3CCN(CC(=O)N4CC5(C4)CN(c4ccc(-c6cc(F)c7c(c6)C(=O)N(C(C(=O)Nc6nccs6)c6ncn8c6CCC8)C7)cc4)C5)CC3)cc21` (stereo not shown) [Compound 123, 2-(6,7-dihydro-5H-pyrrolo[1,2-c]imidazol-1-yl)-2-[6-[4-[2-[2-[4-[3-(2,4-dioxohexahydropyrimidin-1-yl)-5-fluoro-1-methyl-indazol-6-yl]piperazin-1-yl]acetyl]-2,6-diazaspiro[3.3]heptan-6-yl]phenyl]-4-fluoro-1-oxo-isoindolin-2-yl]-N-thiazol-2-yl-acetamide], the DC50 was under 50 nM.

In the case of `Cn1nc(N2CCC(=O)NC2=O)c2ccc(C3CCN(CC(=O)N4CCC(n5cc(-c6cc(F)c7c(c6)C(=O)N(C(C(=O)Nc6nccs6)c6ncn8c6CCC8)C7)cn5)CC4)CC3(F)F)cc21` (stereo not shown) [Compound 105, 2-(6,7-dihydro-5H-pyrrolo[1,2-c]imidazol-1-yl)-2-(6-(1-(1-(2-(4-(3-(2,4-dioxotetrahydropyrimidin-1(2H)-yl)-1-methyl-1H-indazol-6-yl)-3,3-difluoropiperidin-1-yl)acetyl)piperidin-4-yl)-1H-pyrazol-4-yl)-4-fluoro-1-oxoisoindolin-2-yl)-N-(thiazol-2-yl)acetamide], the DC50 is under 50 nM.

For `O=C1CC[C@@H](Nc2ccc(N3CCC(O)(CC(=O)N4CCC(NC(=O)c5ccc(C#Cc6cc(F)c7c(c6)C(=O)N(C(C(=O)Nc6nccs6)c6ncn8c6C[C@@H](F)C8)C7)cn5)CC4)CC3)c(F)c2)C(=O)N1` (stereo partly drawn) [Compound 108, N-(1-(2-(1-(4-(((R)-2,6-dioxopiperidin-3-yl)amino)-2-fluorophenyl)-4-hydroxypiperidin-4-yl)acetyl)piperidin-4-yl)-5-((7-fluoro-2-(1-((R)-6-fluoro-6,7-dihydro-5H-pyrrolo[1,2-c]imidazol-1-yl)-2-oxo-2-(thiazol-2-ylamino)ethyl)-3-oxoisoindolin-5-yl)ethynyl)picolinamide], the 50% degradation concentration (DC50) was under 50 nM.

As to `O=C1CCN(c2ccc(N3CCC(O)(CC(=O)N4CC5(CCN(c6ccc(-c7cc(F)c8c(c7)C(=O)N(C(C(=O)Nc7nccs7)c7ncn9c7CCC9)C8)cc6)CC5)C4)CC3)c(F)c2)C(=O)N1` (stereo not shown) [Compound 163, 2-(6,7-dihydro-5H-pyrrolo[1,2-c]imidazol-1-yl)-2-[6-[4-[2-[2-[1-[4-(2,4-dioxohexahydropyrimidin-1-yl)-2-fluoro-phenyl]-4-hydroxy-4-piperidyl]acetyl]-2,7-diazaspiro[3.5]nonan-7-yl]phenyl]-4-fluoro-1-oxo-isoindolin-2-yl]-N-thiazol-2-yl-acetamide], the half-maximal degradation concentration (DC50) was under 50 nM.

Turning to `O=C1CCN(c2ccc(N3CCC(O)(CC(=O)N4CC5(C4)CN(c4ccc(-c6cc(F)c7c(c6)C(=O)N(C(C(=O)Nc6nccs6)c6ncn8c6CCC8)C7)cc4)C5)CC3)c(F)c2)C(=O)N1` (stereo not shown) [Compound 156, 2-(6,7-dihydro-5H-pyrrolo[1,2-c]imidazol-1-yl)-2-[6-[4-[2-[2-[1-[4-(2,4-dioxohexahydropyrimidin-1-yl)-2-fluoro-phenyl]-4-hydroxy-4-piperidyl]acetyl]-2,6-diazaspiro[3.3]heptan-6-yl]phenyl]-4-fluoro-1-oxo-isoindolin-2-yl]-N-thiazol-2-yl-acetamide], the DC50 fell in the range of 50 to 150 nM.

In the case of `O=C1CCC(c2ccc(N3CCC(O)(CC(=O)N4CC5(C4)CN(c4ccc(-c6cc(F)c7c(c6)C(=O)N(C(C(=O)Nc6nccs6)c6ncn8c6CCC8)C7)cc4)C5)CC3)c(F)c2)C(=O)N1` (stereo not shown) [Compound 157, 2-(6,7-dihydro-5H-pyrrolo[1,2-c]imidazol-1-yl)-2-(6-(4-(6-(2-(1-(4-(2,6-dioxopiperidin-3-yl)-2-fluorophenyl)-4-hydroxypiperidin-4-yl)acetyl)-2,6-diazaspiro[3.3]heptan-2-yl)phenyl)-4-fluoro-1-oxoisoindolin-2-yl)-N-(thiazol-2-yl)acetamide], the DC50 is over 150 nM.

With `O=C1CCC(Nc2cc(F)c(N3CCC(CC(=O)N4CC5(C4)CN(c4ccc(-c6cc(F)c7c(c6)C(=O)N(C(C(=O)Nc6nccs6)c6ncn8c6CCC8)C7)cc4)C5)CC3)c(F)c2)C(=O)N1` (stereo not shown) [Compound 101, 2-(6,7-dihydro-5H-pyrrolo[1,2-c]imidazol-1-yl)-2-(6-(4-(6-(2-(1-(4-((2,6-dioxopiperidin-3-yl)amino)-2,6-difluorophenyl)piperidin-4-yl)acetyl)-2,6-diazaspiro[3.3]heptan-2-yl)phenyl)-4-fluoro-1-oxoisoindolin-2-yl)-N-(thiazol-2-yl)acetamide], the DC50 was 50 to 150 nM.
